pIC50: −log10 of the molar value.

Here are results for 46 compounds from patent US12522607B2, “Substituted pyrazolo[3,4-d]pyrimidines as wee-1 inhibitors” (WIGEN BIOMEDICINE TECHNOLOGY (SHANGHAI) CO., LTD., priority 2020, dated 2026).

Experiment [1] addresses T1, Wee-1 kinase (Homo sapiens, UniProt P30291).
T1 construct: purchased Invitrogen
Kind of experiment: Inhibitory activity against Wee-1 kinase (Lanthra Screen Wee-1 kinase kit, Tracer 178). The experiment is classed as binding. The conditions noted are these: Wee-1 kinase 5 nM, Tracer 178 50 nM, 1 h room temperature. How it is done:
Example 342. Assay for Inhibitory Activity of Compounds Against Wee-1 Kinase
The inhibitory activity of compounds against Wee-1 kinase was determined by using the Lanthra Screen Wee-1 kinase kit (Invitrogen). 5 μL of the compound diluted in a gradient with DMSO, 5 μL. of Wee-1 kinase (at a final concentration of 5 nM), 5 μL of an Eu-Anti-GST antibody (at a final concentration of 2 nM) mixture and 5 μL of kinase Tracer 178 (at a final concentration of 50 nM) were mixed well. The plate was read after incubation at room temperature for one hour. For comparison with the DMSO solvent control group, IC50 for the inhibition activity of the compounds against Wee-1 kinase was calculated.

The subject of experiment [2] is HT29 cells. Kind of experiment: Antiproliferative activity against HT29 cells (Cell Titer-Lumi, ATP content). The experiment is classed as cell-based. The conditions noted are these: Homo sapiens, HT-29, 72 after compound addition, read-out: HT-29 cells Anti-proliferative activity (IC50 for the inhibition against HT-29 cell growth). How it is done:
Example 343. Assay for Antiproliferative Activity Against HT29 Cells
3000 HT29 cells were seed in a 384-well plate (Fisher 142762). After the cells adhered to the wall overnight, the compounds diluted in a gradient were added. 72 later, Cell Titer-Lumi (Beyotime C0068XL) was added to determine the content of ATP in the cells. The growth of the cells was evaluated, and the IC50 for the inhibition of the compounds against cell growth was calculated.

T1 sequence (P30291 whole entry): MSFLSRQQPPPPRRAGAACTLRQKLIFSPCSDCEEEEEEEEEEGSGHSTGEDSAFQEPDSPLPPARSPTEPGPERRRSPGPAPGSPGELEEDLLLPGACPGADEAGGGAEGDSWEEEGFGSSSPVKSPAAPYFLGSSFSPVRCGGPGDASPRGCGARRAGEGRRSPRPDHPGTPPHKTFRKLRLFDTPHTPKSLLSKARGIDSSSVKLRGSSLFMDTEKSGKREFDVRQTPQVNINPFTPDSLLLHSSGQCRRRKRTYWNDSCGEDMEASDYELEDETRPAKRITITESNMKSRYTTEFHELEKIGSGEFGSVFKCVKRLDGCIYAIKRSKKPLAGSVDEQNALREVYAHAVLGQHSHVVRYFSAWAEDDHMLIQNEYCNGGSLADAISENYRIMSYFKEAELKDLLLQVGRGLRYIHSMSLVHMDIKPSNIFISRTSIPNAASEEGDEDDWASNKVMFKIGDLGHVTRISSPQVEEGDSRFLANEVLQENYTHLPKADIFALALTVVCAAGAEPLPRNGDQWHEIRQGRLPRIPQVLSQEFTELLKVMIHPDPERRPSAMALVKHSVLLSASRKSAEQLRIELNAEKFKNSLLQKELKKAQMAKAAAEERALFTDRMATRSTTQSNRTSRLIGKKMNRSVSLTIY

Broadly, the pIC50 is the negative decadic logarithm of the IC50, by convention in mol/L. Consider `C=CCn1c(=O)c2cnc(Nc3ccc(N4CCN(C)CC4)c(OC)c3)nc2n1-c1ccc(=O)n(C(C)C)c1` [Compound 48], for which the pIC50 is at least 7.52 in experiment [1] and at least 6.00 in experiment [2].

Turning to `C=CCn1c(=O)c2cnc(Nc3ccc(N4CCNCC4)c(C(F)(F)F)c3)nc2n1-c1ccc(=O)n(C(C)C)c1` [Compound 49], the values for the negative-log IC50 (pIC50) in experiment [1] and in experiment [2] were at least 7.52 and at least 6.00, respectively.

`C=CCn1c(=O)c2cnc(Nc3ccc(N4CCN(C)CC4)c(C(F)(F)F)c3)nc2n1-c1ccc(=O)n(C(C)C)c1` [Compound 50]: the negative logarithm of the IC50 (pIC50) in experiment [1] was at least 7.52; in experiment [2], at least 6.00.

As to `C=CCn1c(=O)c2cnc(Nc3ccc(N4CCNCC4)c(CO)c3)nc2n1-c1ccc(=O)n(C(C)C)c1` [Compound 51], the negative logarithm of the IC50 (pIC50) in experiment [1] was 7.00 to 7.52; in experiment [2], 5.52 to 6.00.

Take `C=CCn1c(=O)c2cnc(Nc3ccc(N4CCN(C)CC4)c(CO)c3)nc2n1-c1ccc(=O)n(C(C)C)n1` [Compound 52]: the pIC50 in experiment [1] is at least 7.52; in experiment [2], 5.52 to 6.00.

`C=CCn1c(=O)c2cnc(Nc3ccc(N4CCNCC4)c(CC(F)(F)F)c3)nc2n1-c1ccc(=O)n(C(C)C)n1` [Compound 53]: the results for the pIC50 in experiment [1] and in experiment [2] were at least 7.52 and at least 6.00, respectively.

For `C=CCn1c(=O)c2cnc(Nc3ccc(N4CCN(C)CC4)c(CC(F)(F)F)c3)nc2n1-c1ccc(=O)n(C(C)C)n1` [Compound 54], the negative logarithm of the IC50 (pIC50) in experiment [1] is at least 7.52; in experiment [2], at least 6.00.

For the compound `C=CCn1c(=O)c2cnc(Nc3cc(C)c(N4CCNCC4)c(F)c3)nc2n1-c1ccc(=O)n(C(C)C)n1` [Compound 55], the pIC50 is at least 7.52 in experiment [1] and at least 6.00 in experiment [2].

Turning to `C=CCn1c(=O)c2cnc(Nc3cc(C)c(N4CCN(C)CC4)c(F)c3)nc2n1-c1ccc(=O)n(C(C)C)n1` [Compound 56], the results for the pIC50 in experiment [1] and in experiment [2] were at least 7.52 and at least 6.00, respectively.

With `C=CCn1c(=O)c2cnc(Nc3cc(C)c(N4CCNCC4)c(Cl)c3)nc2n1-c1ccc(=O)n(C(C)C)n1` [Compound 57], the pIC50 in experiment [1] was at least 7.52; in experiment [2], at least 6.00.

`C=CCn1c(=O)c2cnc(Nc3cc(C)c(N4CCN(C)CC4)c(Cl)c3)nc2n1-c1ccc(=O)n(C(C)C)n1` [Compound 58]: the pIC50 in experiment [1] is at least 7.52; in experiment [2], at least 6.00.

On to `C=CCn1c(=O)c2cnc(Nc3cc(F)c(N4CCNCC4)c(Cl)c3)nc2n1-c1ccc(=O)n(C(C)C)n1` [Compound 59], for which the negative logarithm of the IC50 (pIC50) is at least 7.52 in experiment [1] and at least 6.00 in experiment [2].

For `C=CCn1c(=O)c2cnc(Nc3cc(F)c(N4CCN(C)CC4)c(Cl)c3)nc2n1-c1ccc(=O)n(C(C)C)n1` [Compound 60], the negative logarithm of the IC50 (pIC50) in experiment [1] was at least 7.52; in experiment [2], at least 6.00.

For the compound `C=CCn1c(=O)c2cnc(Nc3cc(Cl)c(N4CCNCC4)c(Cl)c3)nc2n1-c1ccc(=O)n(C(C)C)n1` [Compound 61], the figures for the pIC50 in experiment [1] and in experiment [2] were at least 7.52 and at least 6.00, respectively.

For the compound `C=CCn1c(=O)c2cnc(Nc3cc(Cl)c(N4CCN(C)CC4)c(Cl)c3)nc2n1-c1ccc(=O)n(C(C)C)n1` [Compound 62], the pIC50 in experiment [1] is at least 7.52; in experiment [2] it was at least 6.00.

For `C=CCn1c(=O)c2cnc(Nc3cc(F)c(N4CCNCC4)c(OC)c3)nc2n1-c1ccc(=O)n(C(C)C)n1` [Compound 63], the negative logarithm of the IC50 (pIC50) is at least 7.52 in experiment [1] and at least 6.00 in experiment [2].

For `C=CCn1c(=O)c2cnc(Nc3cc(F)c(N4CCN(C)CC4)c(OC)c3)nc2n1-c1ccc(=O)n(C(C)C)n1` [Compound 64], the values for the negative-log IC50 (pIC50) in experiment [1] and in experiment [2] were at least 7.52 and at least 6.00, respectively.

Take `C=CCn1c(=O)c2cnc(Nc3cc(Cl)c(N4CCNCC4)c(OC)c3)nc2n1-c1ccc(=O)n(C(C)C)n1` [Compound 65]: the negative logarithm of the IC50 (pIC50) in experiment [1] is at least 7.52; in experiment [2] it was at least 6.00.

With `C=CCn1c(=O)c2cnc(Nc3cc(Cl)c(N4CCN(C)CC4)c(OC)c3)nc2n1-c1ccc(=O)n(C(C)C)n1` [Compound 66], the negative logarithm of the IC50 (pIC50) in experiment [1] is at least 7.52; in experiment [2], at least 6.00.

In the case of `C=CCn1c(=O)c2cnc(Nc3cccc(N4CCNCC4)c3)nc2n1-c1ccc(=O)n(C(C)C)n1` [Compound 67], the pIC50 in experiment [1] is at least 7.52; in experiment [2], at least 6.00.

As to `C=CCn1c(=O)c2cnc(Nc3cccc(N4CCN(C)CC4)c3)nc2n1-c1ccc(=O)n(C(C)C)n1` [Compound 68], the results for the pIC50 in experiment [1] and in experiment [2] were at least 7.52 and at least 6.00, respectively.

On to `C=CCn1c(=O)c2cnc(Nc3cc(C)cc(N4CCNCC4)c3)nc2n1-c1ccc(=O)n(C(C)C)n1` [Compound 69], for which the values for the pIC50 in experiment [1] and in experiment [2] were at least 7.52 and at least 6.00, respectively.

On to `C=CCn1c(=O)c2cnc(Nc3cc(C)cc(N4CCN(C)CC4)c3)nc2n1-c1ccc(=O)n(C(C)C)n1` [Compound 70], for which the pIC50 in experiment [1] is at least 7.52; in experiment [2] it was at least 6.00.

As to `C=CCn1c(=O)c2cnc(Nc3cc(F)cc(N4CCNCC4)c3)nc2n1-c1ccc(=O)n(C(C)C)n1` [Compound 71], the values for the negative-log IC50 (pIC50) in experiment [1] and in experiment [2] were at least 7.52 and at least 6.00, respectively.

For `C=CCn1c(=O)c2cnc(Nc3cc(F)cc(N4CCN(C)CC4)c3)nc2n1-c1ccc(=O)n(C(C)C)n1` [Compound 72], the pIC50 was at least 7.52 in experiment [1] and at least 6.00 in experiment [2].

With `C=CCn1c(=O)c2cnc(Nc3cc(Cl)cc(N4CCNCC4)c3)nc2n1-c1ccc(=O)n(C(C)C)n1` [Compound 73], the negative-log IC50 (pIC50) was at least 7.52 in experiment [1] and at least 6.00 in experiment [2].

Take `C=CCn1c(=O)c2cnc(Nc3cc(Cl)cc(N4CCN(C)CC4)c3)nc2n1-c1ccc(=O)n(C(C)C)n1` [Compound 74]: the pIC50 was at least 7.52 in experiment [1] and at least 6.00 in experiment [2].

`C=CCn1c(=O)c2cnc(Nc3cc(OC)cc(N4CCNCC4)c3)nc2n1-c1ccc(=O)n(C(C)C)n1` [Compound 76]: the pIC50 was at least 7.52 in experiment [1] and at least 6.00 in experiment [2].

Take `C=CCn1c(=O)c2cnc(Nc3ccc(N4CC(N(C)C)C4)cc3)nc2n1-c1ccc(=O)n(C(C)C)n1` [Compound 77]: the pIC50 in experiment [1] is at least 7.52; in experiment [2], at least 6.00.

In the case of `C=CCn1c(=O)c2cnc(Nc3ccc(N4CC(N(C)C)C4)c(C)c3)nc2n1-c1ccc(=O)n(C(C)C)n1` [Compound 78], the pIC50 in experiment [1] is at least 7.52; in experiment [2], at least 6.00.

For `C=CCn1c(=O)c2cnc(Nc3ccc(N4CC(N(C)C)C4)c(OC)c3)nc2n1-c1ccc(=O)n(C(C)C)n1` [Compound 79], the pIC50 was at least 7.52 in experiment [1] and at least 6.00 in experiment [2].

Regarding `C=CCn1c(=O)c2cnc(Nc3ccc(N4CC(N5CCC5)C4)cc3)nc2n1-c1ccc(=O)n(C(C)C)n1` [Compound 80], the pIC50 was at least 7.52 in experiment [1] and 5.52 to 6.00 in experiment [2].

Take `C=CCn1c(=O)c2cnc(Nc3ccc(N4CC(N5CCC5)C4)c(C)c3)nc2n1-c1ccc(=O)n(C(C)C)n1` [Compound 81]: the pIC50 in experiment [1] is at least 7.52; in experiment [2], at least 6.00.

Consider `C=CCn1c(=O)c2cnc(Nc3ccc(N4CC(N5CCC5)C4)c(OC)c3)nc2n1-c1ccc(=O)n(C(C)C)n1` [Compound 82], for which the results for the pIC50 in experiment [1] and in experiment [2] were at least 7.52 and at least 6.00, respectively.

Take `C=CCn1c(=O)c2cnc(Nc3ccc(N4CC(N5CCCC5)C4)cc3)nc2n1-c1ccc(=O)n(C(C)C)n1` [Compound 83]: the pIC50 was at least 7.52 in experiment [1] and at least 6.00 in experiment [2].

`C=CCn1c(=O)c2cnc(Nc3ccc(N4CC(N5CCCC5)C4)c(C)c3)nc2n1-c1ccc(=O)n(C(C)C)n1` [Compound 84]: the pIC50 in experiment [1] is at least 7.52; in experiment [2], at least 6.00.

`C=CCn1c(=O)c2cnc(Nc3ccc(N4CC(N5CCCC5)C4)c(OC)c3)nc2n1-c1ccc(=O)n(C(C)C)n1` [Compound 85]: the pIC50 in experiment [1] is at least 7.52; in experiment [2] it was at least 6.00.

On to `C=CCn1c(=O)c2cnc(Nc3ccc(N4CCC(N5CCC5)CC4)cc3)nc2n1-c1ccc(=O)n(C(C)C)n1` [Compound 86], for which the negative-log IC50 (pIC50) in experiment [1] was at least 7.52; in experiment [2], at least 6.00.

As for `C=CCn1c(=O)c2cnc(Nc3ccc(N4CCC(N5CCC5)CC4)c(C)c3)nc2n1-c1ccc(=O)n(C(C)C)n1` [Compound 87], the pIC50 in experiment [1] was at least 7.52; in experiment [2], at least 6.00.

As to `C=CCn1c(=O)c2cnc(Nc3ccc(N4CCC(N5CCC5)CC4)c(OC)c3)nc2n1-c1ccc(=O)n(C(C)C)n1` [Compound 88], the negative-log IC50 (pIC50) in experiment [1] is at least 7.52; in experiment [2], at least 6.00.

Take `C=CCn1c(=O)c2cnc(Nc3ccc(N4CCC(N5CCCC5)CC4)cc3)nc2n1-c1ccc(=O)n(C(C)C)n1` [Compound 89]: the pIC50 in experiment [1] is at least 7.52; in experiment [2] it was at least 6.00.

Consider `C=CCn1c(=O)c2cnc(Nc3ccc(N4CCC(N5CCCC5)CC4)c(C)c3)nc2n1-c1ccc(=O)n(C(C)C)n1` [Compound 90], for which the pIC50 is at least 7.52 in experiment [1] and at least 6.00 in experiment [2].

Consider `C=CCn1c(=O)c2cnc(Nc3ccc(N4CCC(N5CCCC5)CC4)c(OC)c3)nc2n1-c1ccc(=O)n(C(C)C)n1` [Compound 91], for which the pIC50 in experiment [1] was at least 7.52; in experiment [2] it was at least 6.00.

On to `C=CCn1c(=O)c2cnc(Nc3ccc(N4CC[C@H](N(C)C)C4)cc3)nc2n1-c1ccc(=O)n(C(C)C)n1` [Compound 92], for which the pIC50 in experiment [1] is at least 7.52; in experiment [2], at least 6.00.

Turning to `C=CCn1c(=O)c2cnc(Nc3ccc(N4CC[C@H](N(C)C)C4)c(C)c3)nc2n1-c1ccc(=O)n(C(C)C)n1` [Compound 93], the pIC50 in experiment [1] was at least 7.52; in experiment [2], at least 6.00.

For the compound `C=CCn1c(=O)c2cnc(Nc3ccc(N4CC[C@H](N(C)C)C4)c(OC)c3)nc2n1-c1ccc(=O)n(C(C)C)n1` [Compound 94], the pIC50 was at least 7.52 in experiment [1] and at least 6.00 in experiment [2].
